In patent publication US20100311835A1, “CIS-9, TRANS-11 ISOMER OF CONJUGATED LINOLEIC ACID (CLA) FOR TREATING INFLAMMATORY DISEASES” (COGNIS IP MANAGEMENT GMBH, priority 2003, published 2010):

Legend:
IL-6 [1] = assay: IL-6 in cell culture supernatants by ELISA, stimulated NHBE; format: cell-based, human; conditions: 24 h
Description: (§1) • Cell cultures. The transformed human bronchial epithelial cell line BEAS-2B (Clonetics Cell Systems, St. Katharinen, Germany) and the normal human bronchial epithelial cell line in primary culture (American Type Culture Collection, Manassas, Va., USA) were cultured in T-25-tissue flasks in bronchial/tracheal epithelial cell basal medium (BEBM) supplemented with a variety of growth factors including bovine pituitary extract (0,052 mg/mL), human recombinant epidermal growth factor (0.5 ng/mL), hydrocortisone (0.5 μg/mL), epinephrine (0.5 μg/mL), transferrin (0.01 mg/mL), insulin (5 μg/mL), retinoic acid (0.1 ng/mL), triiodthyronine (6.5 ng/mL), gentamicin (0.05 mg/mL) and amphotericin (0.05 μg/mL), all purchased from Clonetics Cell Systems (St. Katharinen, Germany). Cultures were held at 37° C. in a humidified atmosphere of 5% CO2 in air and the medium was changed every other day. • Stimulation of cells and fatty acid supplementation. Cis-9,trans-11-CLA and linoleic acid (LA) were obtained from Matreya Inc. (Pleasant Gap, Pa., USA). Purified fatty acids in oil form were dissolved in 96% ethanol to give a 20-mM stock solution, which was further diluted in growth medium to produce the range of test concentrations (20 μg/mL, 10 μg/mL and 5 μg/mL CLA and LA, respectively). At confluence, the cells were detached by exposure to trypsin/EDTA solution (0.05/0.02% in Ca^2+- and Mg^2+-free phosphate buffered saline; Biochrom AG, Krefeld, Germany) and reseeded in 12-well plates at a concentration of 1×10^5 cells/well and cultured for 24 h to allow the cells to attach to the substratum. The medium was then replaced and a final volume of 1 ml of each CLA- and LA-test concentrations, supplemented with 5 μg LPS/mL (lipopolysaccharide, E-coli serotype 026:B6, Sigma, Taufkirchen, Germany) and 10% serum from allergic donors, was added to the wells. A similar volume of fatty acid-free medium containing the indicated stimuli and 0.4% ethanol, corresponding to the max. volume in experimental wells, was used in stimulated control. 1 ml of fresh growth medium containing 0.4% ethanol without any fatty acid and stimuli underwent the same measures of preparation and represented the unstimulated control. After incubation for 24 h at 37° C., supernatants were harvested, separated from non-adherent cells and cell debris by centrifugation (1300 rpm, 10 min), and kept at −20° C. until cytokine analysis. Cells were trypsinised to determine cell numbers and allow quantification of differences in cell proliferation in response to different treatments. • Measurement of IL-6 and IL-8 in cell culture supernatants. IL-6 and IL-8 production of epithelial cells were estimated in duplicate by enzyme-linked immunosorbent assay using commercially available ELISA kits (Pharmingen, Heidelberg, Germany) according to the manufacturer's guidelines. Standard curves and blank buffer were included in duplicate in each assay. When necessary, samples were diluted to fit into the assay range. Specific interleukin concentrations were expressed as picograms of interleukin per millilitre. • Estimation of cytokine gene expression with RT-PCR. Cultures of BEAS-2B and NHBE at an initial density of 1×10^5 cells/well were stimulated as described above and treated with cis-9,trans-11-CLA or LA in the highest concentration (20 μg/mL) for 4 h or 12 h before total cellular RNA was isolated for cytokine gene expression analysis by reverse transcriptase-polymerase chain reaction. Total RNA preparations were performed by DNase treatment according to the standard protocol of the High-Pure™ RNA isolation kit from Roche (Mannheim, Germany). For RT-PCR analysis, first strand cDNA was synthesized from extracted RNA using random primers, reagents and conditions supplied in the ProSTAR™ First-Strand RT-PCR kit from Stratagene (Amsterdam, Netherlands). One-tenth of the synthesized cDNA was subjected to PCRamplification in a total volume of 25 μl. […]

IL-6 mRNA = assay: Quantification of IL-6 mRNA by RT-PCR in stimulated bronchial epithelial cells; format: cell-based, human; conditions: 20 μg/mL, 4 h and 12 h, LPS/serum-stimulated, RT-PCR with cyclophilin as internal standard
Description: (§2) • Cell cultures. The transformed human bronchial epithelial cell line BEAS-2B (Clonetics Cell Systems, St. Katharinen, Germany) and the normal human bronchial epithelial cell line in primary culture (American Type Culture Collection, Manassas, Va., USA) were cultured in T-25-tissue flasks in bronchial/tracheal epithelial cell basal medium (BEBM) supplemented with a variety of growth factors including bovine pituitary extract (0,052 mg/mL), human recombinant epidermal growth factor (0.5 ng/mL), hydrocortisone (0.5 μg/mL), epinephrine (0.5 μg/mL), transferrin (0.01 mg/mL), insulin (5 μg/mL), retinoic acid (0.1 ng/mL), triiodthyronine (6.5 ng/mL), gentamicin (0.05 mg/mL) and amphotericin (0.05 μg/mL), all purchased from Clonetics Cell Systems (St. Katharinen, Germany). Cultures were held at 37° C. in a humidified atmosphere of 5% CO2 in air and the medium was changed every other day. • Stimulation of cells and fatty acid supplementation. […] Cells were trypsinised to determine cell numbers and allow quantification of differences in cell proliferation in response to different treatments. • Measurement of IL-6 and IL-8 in cell culture supernatants. […] Specific interleukin concentrations were expressed as picograms of interleukin per millilitre. • Estimation of cytokine gene expression with RT-PCR. […]

IL-6 [2] = assay: IL-6 in cell culture supernatants by ELISA, stimulated BEAS-2B; format: cell-based, human
Description: as §1

IL-8 mRNA = assay: Quantification of IL-8 mRNA by RT-PCR in stimulated bronchial epithelial cells; format: cell-based, human; conditions: 20 μg/mL, 4 h and 12 h, LPS/serum-stimulated, RT-PCR with cyclophilin as internal standard
Description: as §2

BEAS-2B = assay: Proliferation of LPS/serum-stimulated cells (cell numbers after 24 h); format: cell-based, human
Description: as §1

NHBE = assay: as above; format: cell-based, human
Description: as §1

[3] = test system: eosinophilic granuloctyes; assay: Apoptosis of eosinophilic granulocytes in vitro; format: cell-based
IL-8 [4] = assay: IL-8 in cell culture supernatants by ELISA, stimulated BEAS-2B; format: cell-based, human
Description: as §1

IL-8 [5] = assay: IL-8 in cell culture supernatants by ELISA, stimulated NHBE; format: cell-based, human; conditions: 24 h
Description: as §1

[6] = 5 μg/mL, vs stimulated control+
[7] = 10 μg/mL, vs stimulated control+
[8] = 20 μg/mL, vs stimulated control+
[9] = BEAS-2B, 5 μg/mL, 24 h, vs stimulated control+
[10] = BEAS-2B, 10 μg/mL, 24 h, vs stimulated control+
[11] = BEAS-2B, 20 μg/mL, 24 h, vs stimulated control+
[12] = in vitro, compared to a placebo
[13] = BEAS-2B, 5 μg/mL, 24 h, LPS/serum-stimulated
[14] = BEAS-2B, 10 μg/mL, 24 h, LPS/serum-stimulated

Row | Compound | pg IL (cytokine release/100.000 cells) (IL-6 [1]; 5 μg/mL) [pg/100.000 cells] | pg IL (cytokine release/100.000 cells) (IL-6 [1]; 10 μg/mL) [pg/100.000 cells] | pg IL (cytokine release/100.000 cells) (IL-6 [1]; 20 μg/mL) [pg/100.000 cells] | IL-6 mRNA accumulation compared with stimulated control (c+) (IL-6 mRNA) | pg IL (cytokine release/100.000 cells) (IL-6 [2]; BEAS-2B, 5 μg/mL, 24 h) [pg/100.000 cells] | pg IL (cytokine release/100.000 cells) (IL-6 [2]; BEAS-2B, 10 μg/mL, 24 h) [pg/100.000 cells] | pg IL (cytokine release/100.000 cells) (IL-6 [2]; BEAS-2B, 20 μg/mL, 24 h) [pg/100.000 cells] | IL-8 mRNA accumulation compared with stimulated control (c+) (IL-8 mRNA) | % inhibition of proliferation (BEAS-2B; [13]) | % inhibition of proliferation (BEAS-2B; [14]) | % inhibition of proliferation (NHBE; 5 μg/mL, LPS/serum-stimulated) | % inhibition of proliferation (NHBE; 10 μg/mL, LPS/serum-stimulated) | pg IL (cytokine release/100.000 cells) (IL-8 [4]; BEAS-2B, 5 μg/mL, 24 h) [pg/100.000 cells] | pg IL (cytokine release/100.000 cells) (IL-8 [4]; BEAS-2B, 10 μg/mL, 24 h) [pg/100.000 cells] | pg IL (cytokine release/100.000 cells) (IL-8 [4]; BEAS-2B, 20 μg/mL, 24 h) [pg/100.000 cells] | pg IL (cytokine release/100.000 cells) (IL-8 [5]; 5 μg/mL) [pg/100.000 cells] | pg IL (cytokine release/100.000 cells) (IL-8 [5]; 10 μg/mL) [pg/100.000 cells] | pg IL (cytokine release/100.000 cells) (IL-8 [5]; 20 μg/mL) [pg/100.000 cells] | further results
1 | CCCCCC/C=C/C=C\CCCCCCCC(=O)O (single isomer, unassigned) [CLA, cis-9,trans-11 isomer of conjugated linoleic acid] | 2049 ± 262 | 2062 ± 707 | 1731 ± 387 | diminished | 983 ± 175 | 841 ± 184 | 792 ± 152 | diminished | 7.9±5.1% | 19.3±5.0% | 5.3 ± 3.7% | 15.4±3.6% | 1774 ± 154 | 1667 ± 160 | 1458 ± 136 | 6212 ± 513 | 5659 ± 812 | 6793 ± 545 | % inhibition of IL-6-secretion (IL-6 [1]; [6]): 56.9±4.9%; % inhibition of IL-6-secretion (IL-6 [1]; [7]): 62.3 ± 10.2%; % inhibition of IL-6-secretion (IL-6 [1]; [8]): 68.6±5.3%; % inhibition of IL-6-secretion (IL-6 [2]; [9]): 59.9±7.1%; % inhibition of IL-6-secretion (IL-6 [2]; [10]): 69.7 ± 7.6%; % inhibition of IL-6-secretion (IL-6 [2]; [11]): 76.4±4.4%; reduced expression of IL-6 (summary statement) (IL-6 [2]; [12]): about 70%; % inhibition of proliferation (BEAS-2B; BEAS-2B, 20 μg/mL, 24 h, 5 μg LPS/mL + 10% serum from allergic donors): 32.7±5.0%; inhibition of cell proliferation of bronchial epithelial cells (summary statement) (BEAS-2B; in vitro, epithelial cells, mainly bronchial epithelial cells): up to 30%; % inhibition of proliferation (NHBE; 20 μg/mL, LPS/serum-stimulated): 17.4±2.8%; apoptosis of eosinophilic granulocytes [3]: support of apoptosis; % inhibition of IL-8-secretion (IL-8 [4]; [9]): 25.6±3.6%; % inhibition of IL-8-secretion (IL-8 [4]; [10]): 38.8 ± 5.2%; % inhibition of IL-8-secretion (IL-8 [4]; [11]): 55.2±5.2%; reduced expression of IL-8 (summary statement) (IL-8 [4]; [12]): about 50%; % inhibition of IL-8-secretion (IL-8 [5]; [6]): 33.3 ± 8.1%; % inhibition of IL-8-secretion (IL-8 [5]; [7]): 46.0±8.1%; % inhibition of IL-8-secretion (IL-8 [5]; [8]): 35.9 ± 11.4%
2 | CCCCC/C=C\C/C=C\CCCCCCCC(=O)O [LA, cis-9,cis-12-octadecadienoic acid, reference compound] | 3052 ± 292 | 2906 ± 530 | 2007 ± 924 | no effect | 1440 ± 78 | 1220 ± 120 | 1181 ± 256 | no effect | no effect | no effect | no effect | no effect | 1483 ± 209 | 1341 ± 110 | 1533 ± 121 | 6820 ± 543 | 6252 ± 462 | 5420 ± 1032 | inhibition at 5 µg/mL (IL-6 [1]; Homo sapiens, 5 μg/mL, vs stimulated control+, read-out: % inhibition of IL-6-secretion): 32.1 ± 5.6%; inhibition at 10 µg/mL (IL-6 [1]; Homo sapiens, 10 μg/mL, vs stimulated control+, read-out: % inhibition of IL-6-secretion): 35 ± 8.6%; inhibition at 20 µg/mL (IL-6 [1]; Homo sapiens, 20 μg/mL, vs stimulated control+, read-out: % inhibition of IL-6-secretion): 60 ± 16.3%; inhibition at 5 µg/mL (IL-6 [2]; Homo sapiens, BEAS-2B, 5 μg/mL, 24 h, vs stimulated control+, read-out: % inhibition of IL-6-secretion): 23.1 ± 8.9%; inhibition at 10 µg/mL (IL-6 [2]; Homo sapiens, BEAS-2B, 10 μg/mL, 24 h, vs stimulated control+, read-out: % inhibition of IL-6-secretion): 38.4 ± 6.6%; inhibition at 20 µg/mL (IL-6 [2]; Homo sapiens, BEAS-2B, 20 μg/mL, 24 h, vs stimulated control+, read-out: % inhibition of IL-6-secretion): 50.2 ± 14.1%; effect on proliferation at lower concentrations (BEAS-2B; BEAS-2B, concentrations below 20 μg/mL, 24 h): caused cell growth; inhibition at 20 µg/mL (BEAS-2B; Homo sapiens, BEAS-2B, 20 μg/mL, 24 h, 5 μg LPS/mL + 10% serum from allergic donors): 4.7 ± 6.9%; inhibition at 20 µg/mL (NHBE; Homo sapiens, 20 μg/mL, LPS/serum-stimulated): 8.4 ± 2.1%; effect on proliferation at lower concentrations (NHBE; concentrations below 20 μg/mL): caused cell growth; inhibition at 5 µg/mL (IL-8 [4]; Homo sapiens, BEAS-2B, 5 μg/mL, 24 h, vs stimulated control+, read-out: % inhibition of IL-8-secretion): 19.3 ± 8.7%; inhibition at 10 µg/mL (IL-8 [4]; Homo sapiens, BEAS-2B, 10 μg/mL, 24 h, vs stimulated control+, read-out: % inhibition of IL-8-secretion): 30.6 ± 3.6%; inhibition at 20 µg/mL (IL-8 [4]; Homo sapiens, BEAS-2B, 20 μg/mL, 24 h, vs stimulated control+, read-out: % inhibition of IL-8-secretion): 33.5 ± 5%; inhibition at 5 µg/mL (IL-8 [5]; Homo sapiens, 5 μg/mL, vs stimulated control+, read-out: % inhibition of IL-8-secretion): 22.8 ± 5.2%; inhibition at 10 µg/mL (IL-8 [5]; Homo sapiens, 10 μg/mL, vs stimulated control+, read-out: % inhibition of IL-8-secretion): 27.8 ± 10.8%; inhibition at 20 µg/mL (IL-8 [5]; Homo sapiens, 20 μg/mL, vs stimulated control+, read-out: % inhibition of IL-8-secretion): 43.3 ± 14.3%
